Series [1] can be described thus: In vivo pharmacokinetics in mice. The settings on record: male C57BL/6 mice. As to the method:
(§1) Male C57BL/6 mice (25-30 g) and male Sprague-Dawley rats (250-325 g) from Charles River Labs were acclimatized for a minimum of 5 days prior to dosing. Body weights were recorded on the day of dosing.
(§2) Animals dosed p.o. were deprived of food overnight and fed ˜2 h following dosing.
(§3) Formulations were administered intravenously (i.v.) via the tail vein or orally (p.o.) by gavage with disposable feeding needles.
(§4) Serial blood samples were collected via tail snip. Terminal blood samples were collected under isoflurane anesthesia by cardiac puncture.
(§5) All blood samples were transferred into K2EDTA tubes on wet ice and centrifuged within 5 min (3200×g for 5 min at 4° C.) to obtain plasma. Plasma was stored at −80° C. until analysis.
(§6) Mouse or Rat Plasma, as Applicable.
(§7) AB Sciex QTRAP 4000 or 6500 MS/MS system equipped with an LC system with a binary pump, a solvent degasser, a thermostatted column compartment and a multiplate autosampler. i. Analysis software: Phoenix® WinNonlin® 8.2 (Pharsight, Certara, Mountainview, Calif.) ii. Analysis methods: non-compartmental analysis, linear up/log down trapezoidal rule iii. PK parameters: C0, t1/2, AUC0-tlast. AUC0-∞, CL, Vss, MRT, tmax(po), Cmax(po), F, as appropriate

Series [2] can be described thus: In vivo pharmacokinetics in rats. The settings on record: male Sprague-Dawley rats. As to the method: as §1, §2, §3, §4, §5, §6, §7
The test system of series [3] is head-twitch response (HTR) in male C57BL6 mice. The series can be described thus: Mouse head twitch (HTR). Format: in vivo, C57BL/6J mice. The settings on record: 0.3-10 mg/kg SC, measured over 1 h. As to the method:
Data is expressed as mean+SEM. The induction of head twitches elicited by 5-HT2A receptor agonists is believed to represent a behavioural proxy of their psychedelic effects.
The effect of different doses of exemplary compounds of Formula I were evaluated on head-twitch response (HTR) as a behavior-based model of psychedelic activity.
Male, C57BL/6J mice (body weight range 20-30 g) were dosed with the appropriate dose of test article, and following a 1-minute pre-treatment time, placed in individual observation chambers. Animals were visually assessed for the incidence head twitches continuously over a 1 hr period. Head twitches were defined as a rapid jerk of the head which was not elicited by an external tactile stimulus (Corne and Pickering, Psychopharmacologia, 1967, 11(1): 65-78). Each head twitch was individually counted by a trained observer, and the data expressed as the mean+SEM of 6-10 mice per group. Mice were used in a single experiment only.

The source of these data is US11597738B2 (Mindset Pharma Inc., priority 2020, dated 2023).

A word on the AUC(0-inf): it is total exposure, with the tail of the curve extrapolated. Read a high AUC(0-inf) as high exposure. Turning to `[2H]C([2H])([2H])N(C([2H])([2H])[2H])C([2H])([2H])C([2H])([2H])c1c[nH]c2cccc(O)c12` [Compound I-45, 3-(2-(bis(methyl-d3)amino)ethyl-1,1,2,2-d4)-1H-indol-4-ol], the AUC0-inf/Dose in series [1] (i.v., 1 mg/kg) came to 181 ± 30.8 kg·ng·h/mL/mg; in series [1] (p.o., 10 mg/kg) it was 79.5 ± 12.1 kg·ng·h/mL/mg; in series [2] (i.v., 0.3 mg/kg), 181 ± 30.8 kg·ng·h/mL/mg; in series [2] (p.o.) it was 181 ± 14.6 kg·ng·h/mL/mg; in series [2] (s.c., 0.3 mg/kg) it was 120 ± 29.0 kg·ng·h/mL/mg. The Cmax/Dose came out at 70.4 ± 12.8 kg·ng/mL/mg in series [1] (p.o., 10 mg/kg); 79.2 ± 24.4 kg·ng/mL/mg in series [2] (p.o., 3.0 mg/kg (title; dose row prints 10)); 101 ± 40.7 kg·ng/mL/mg in series [2] (s.c., 0.3 mg/kg). Moreover, the AUC(0-inf) in series [2] (rat, plasma, iv, 0.3 mg/kg) is 117 ± 11.5 ng·h/mL. For the same compound, the C0 in series [2] (rat, plasma, iv, 0.3 mg/kg) was determined as 76.5 ± 7.49 ng/mL. In addition, the “head twitch frequency compared to vehicle control” value in series [3] is on record as “dose dependent increase in head twitch frequency”.
